Measurements from patent US6303625A, “Triazolopyridines for the treatment of thrombosis disorders” (Ortho-McNeil Pharmaceutical, Inc., priority 1999, dated 2001).
No end group written: not given here.

Key:
GPIIb/IIIa [1] = molecular target: T1, GPIIb/IIIa (Homo sapiens, UniProt P05106+P08514); assay: In vitro solid phase purified glycoprotein IIb/IIIa binding assay (fibrinogen binding); settings: for inhibition at 50 µM: read-out: Fibrinogen Binding % Inh. (50 μM)
Procedure: In Vito Solid Phase Purified Glycoprotein IIB/IIA Binding Assay
The plate was covered and incubated overnight at 4° C. The GPIIb/IIa solution was discarded and 150 μl of 5% BSA was added and incubated at RT for 1-3 h. The plate was washed extensively with modified Tyrodes buffer. Biotinylated fibrinogen (25 μl/well) at 2×final concentration was added to the wells that contain the test compounds (25 μl/well). The plate was covered and incubated at RT for 2-4 h. Twenty minutes prior to incubation completion, one drop of Reagent A (Vecta Stain ABC Horse Radish Peroxidase kit, Vector Laboratories, Inc.) and one drop Reagent B were added with mixing to 5 mL modified Tyrodes buffer mix and let stand. The ligand solution was discarded and the plate washed (5×200 μl/well) with modified Tyrodes buffer. Vecta Stain HRP-Biotin-Avidin reagent (50 μl/well, as prepared above) was added and incubated at RT for 15 min. The Vecta Stain solution was discarded and the wells washed (5×200 μl/well) with modified Tyrodes buffer. Developing buffer (10 mL of 50 mM citrate/phosphate buffer @ pH 5.3, 6 mg o-phenylenediamine, 6 μl 30% H2 O2; 50 μl/well) was added and incubated at RT for 3-5 min, and then 2N H2 SO4 (50 μl/well) was added. The absorbance was read at 490 nm.

gel-filtered platelets = assay: In vitro inhibition of thrombin-induced gel-filtered platelet aggregation; type: cell-based; settings: Homo sapiens; for inhibition at 50 µM: read-out: Platelet Aggregation % Inh. (50 μM)
Procedure: In Vitro Inhibition of Thrombin-Induced Gel-Filtered Platelet Aggression Assay
The percentage of platelet aggregation is calculated as an increase in light transmission of compound-treated platelet concentrate vs. control-treated platelet concentrate. Human blood was obtained from drug free, normal donors into tubes containing […] sodium citrate. Platelet rich plasma (PRP) was collected by centrifugation of whole blood at 200×g for 10 min at 25° C. The PRP (5 mL) was gel filtered through Sepharose 2B (bed volume 50 mL), and the platelet count was adjusted to 2×10^7 platelets per sample. The following constituents were added to a siliconized cuvette: concentrated platelet filtrate and Tyrode's buffer (0.14M NaCl, 0.0027M KCl, 0.012M NaHCO3,0.76 mM Na2 HPO4, 0.0055M glucose, 2 mg/mL BSA and 5.0 mM HEPES @ pH 7.4) in an amount equal to 350 μl, 50 μl of 20 mM calcium and 50 μl of the test compound. Aggregation was monitored in a BIODATA aggregometer for the 3 min following the addition of agonist (thrombin 50 μl of 1 unit/mL).

[2] = test system: ADP-induced ex vivo platelet aggregation; assay: Ex vivo dog study: duration of >50% inhibition of ADP-induced ex vivo platelet aggregation; type: in vivo; settings: for Oral Dosing Duration (of >50% inhibition of ADP-induced ex vivo platelet aggregation): 1 mpk
Procedure: Adult mongrel dogs (8-13 kg) were anesthetized with sodium pentobarbital (35 mg/kg, i.v.) and artificially respired. Arterial blood pressure and heart rate were measured using a Millar catheter-tip pressure transducer inserted in a femoral artery. Another Millar transducer was placed in the left ventricle (LV) via a carotid artery to measure LV end diastolic pressure and indices of myocardial contractility. A lead II electrocardiogram was recorded from limb electrodes. Catheters were placed in a femoral artery and vein to sample blood and infuse drugs, respectively. Responses were continuously monitored using a Modular Instruments data acquisition system.
Arterial blood samples (5-9 ml) were withdrawn into tubes containing 3.8% sodium citrate to prepare platelet rich plasma (PRP) and to determine effects on coagulation parameters: prothrombin time (PT) and activated partial thromboplastin time (APTT). Separate blood samples (1.5 ml) were withdrawn in EDTA to determine hematocrit and cell counts (platelets, RBC's and white cells). Template bleeding times were obtained from the buccal surface using a symplate incision devise and Whatman filter paper.
Aggregation of PRP was performed using a BioData aggregometer. Aggregation of whole blood used a Chronolog impedance aggregometer. PT and APTT were determined on either a BioData or ACL 3000+ coagulation analyzer. Cells were counted with a Sysmex K-1000.
Compounds were solubilized in a small volume of dimethylformamide (DMF) and diluted with saline to a final concentration of 10% DMF. Compounds were administered by the intravenous route with a Harvard infusion pump. Doses was administered over a 15 min interval at a constant rate of 0.33 ml/min. Data were obtained after each dose and in 30 min intervals following the end of drug administration. Oral doses were administered as aqueous solutions via syringe.

[3] = test system: in vitro thrombin-induced platelet aggregation; settings: L. Alig, J. Med. Chem. 1992, 35, 4393; read-out: IC50 against in vitro thrombin-induced platelet aggregation; cited from earlier work
GPIIb/IIIa [4] = molecular target: T1, GPIIb/IIIa; settings: background statement; cited from earlier work

Row | Molecule | IC50 (GPIIb/IIIa [1]) | inhibition at 50 µM (GPIIb/IIIa [1]) | IC50 (gel-filtered platelets) | inhibition at 50 µM (gel-filtered platelets) | Oral Dosing Duration (of >50% inhibition of ADP-induced ex vivo platelet aggregation) [2] | Intravenous Dosing Duration (of >50% inhibition of ADP-induced ex vivo platelet aggregation) ([2]; intravenous, 0.1 mpk) | IC50 [3] | inhibition of fibrinogen binding to GPIIb/IIIa (GPIIb/IIIa [4])
1 | CC1(C(=O)NC[C@H](NC(=O)OCc2ccccc2)C(=O)O)CCCn2c(CCC3CCNCC3)nnc21 (stereo partly drawn) [Compound 8, β-[[[5,6,7,8-Tetrahydro-8-methyl-3-[2-(4-piperidinyl)ethyl]-1,2,4-triazolo[4,3-a]pyridin-8-yl]carbonyl]amino]-αS-benzyloxycarbonylamino-protanoic acid] | 18.1 nM | 100% | 2100 nM | 100% | < 30 min |  |  | 
2 | O=C(O)C[C@H](NC(=O)C1CCCn2c(/C=C/C3CCNCC3)nnc21)c1cccnc1 (stereo partly drawn) [Compound 12, β-[[[5,6,7,8-Tetrahydro-3-[2-(4-piperidinyl)E-ethylene]-1,2,4-triazolo[4,3-a]pyridin-8-yl]carbonyl]amino]-βS-3-pyridylpropanoic acid] | 0.14 nM | 100% | 30 nM | 100% | 360 min | 150 min |  | 
3 | CN(CC(=O)c1ccc(OCC(=O)O)c(OCC(=O)O)c1)C(=O)c1ccc(C(=N)N)cc1 [Ro-438857] |  |  |  |  |  |  | 94 nM | 
4 | Arg-Gly-Asp |  |  |  |  |  |  |  | shown to inhibit fibrinogen binding to GPIIb/IIIa
5 | HHLGGAKQAGDV [gamma-chain peptide region of fibrinogen (γ400-411)] |  |  |  |  |  |  |  | shown to inhibit fibrinogen binding to GPIIb/IIIa
